From PubChem BioAssay (NCI)
Several values for one entry are separate records, joined by “and”; a condition that tells them apart may be missing. Identical values can stand only once.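 Each compound was tested at five concentrations against cells in 96-well plates for 48 hours. GI50: concentration for 50% inhibition of growth. Definition used: TGI = concentration required for complete inhibition of growth.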 Activity calls are given as the source filed them. Rule as the data show it: active = GI50 below about 0.43 µM; inactive = the rest.

What was measured:
Assay in all cases: NCI tumour cell line growth inhibition, 48 h
UACC-62 melanoma = tested on: UACC-62 melanoma
A549 NSCLC = tested on: A549 NSCLC
OVCAR-8 ovarian = tested on: OVCAR-8 ovarian
LXFL 529 NSCLC = tested on: LXFL 529 NSCLC
SK-MEL-28 melanoma = tested on: SK-MEL-28 melanoma
M19-MEL melanoma = tested on: M19-MEL melanoma
OVCAR-5 ovarian = tested on: OVCAR-5 ovarian
DU-145 prostate = tested on: DU-145 prostate
HS 578T breast = tested on: HS 578T breast

| SMILES | TGI (UACC-62 melanoma) | TGI (A549 NSCLC) | TGI (OVCAR-8 ovarian) | TGI (LXFL 529 NSCLC) [µM] | TGI (SK-MEL-28 melanoma) | TGI (M19-MEL melanoma) [µM] | TGI (OVCAR-5 ovarian) | GI50 (UACC-62 melanoma) | GI50 (A549 NSCLC) | GI50 (OVCAR-5 ovarian) | GI50 (OVCAR-8 ovarian) | outcome (LXFL 529 NSCLC) | GI50 (SK-MEL-28 melanoma) | GI50 (LXFL 529 NSCLC) [µM] | GI50 (DU-145 prostate) [µM] | TGI (DU-145 prostate) | GI50 (HS 578T breast) [nM] | TGI (HS 578T breast) |
| --- | --- | --- | --- | --- | --- | --- | --- | --- | --- | --- | --- | --- | --- | --- | --- | --- | --- | --- |
| CC(=O)c1c(O)c2c([nH]c1=O)CCCC2 | 43.3 µM | > 100 µM | > 100 µM | > 100 | > 100 µM | 44.3 | – | – | – | – | – | – | – | – | – | – | – | – |
| O=C(CCC(=O)C1Cc2ccccc2C1=O)Nc1cccc(C(F)(F)F)c1 (centres undefined) | > 100 µM | > 100 µM | > 100 µM | > 100 | – | > 100 | > 100 µM | – | – | – | – | – | – | – | – | – | – | – |
| O=c1c2cccc3cccc(c4n1CCCN=4)c32 | > 100 µM | > 100 µM | > 100 µM | > 100 | > 100 µM | > 100 | > 100 µM | – | – | – | – | – | – | – | – | – | – | – |
| O=C1c2ccoc2C(=O)c2oc(=O)ccc21 | 31.5 µM | 42 µM | 14.9 µM | 15.2 | 11.5 µM | 2.9 | 33.9 µM | – | – | – | – | – | – | – | – | – | – | – |
| CC(C)(C)c1cc(C(OCCl)(C(F)(F)F)C(F)(F)F)c2c(c1)C(C(F)(F)F)(C(F)(F)F)OC21c2ccccc2C(=O)c2ccccc21 | – | > 100 µM | > 100 µM | > 100 | > 100 µM | > 100 | > 100 µM | – | – | – | – | – | – | – | – | – | – | – |
| C/C(CC(=O)Nc1cccc(Cl)c1C)=N\N=C(N)N | > 100 µM | > 100 µM | > 100 µM | > 100 | > 100 µM | > 100 | > 100 µM | – | – | – | – | – | – | – | – | – | – | – |
| O=C(Nc1ccc(Cl)c(Cl)c1)C1C(=O)N(c2ccc(Cl)c(Cl)c2)C(=O)/C1=N\O (centres undefined) | > 100 µM | > 100 µM | > 100 µM | > 100 | 82.8 µM | > 100 | > 100 µM | – | – | – | – | – | – | – | – | – | – | – |
| COC(=O)c1cc2ccccc2c2nc3ccccc3c(Cl)c12 | > 100 µM | > 100 µM | > 100 µM | > 100 | > 100 µM | > 100 | – | – | – | – | – | – | – | – | – | – | – | – |
| NNC(=O)N/N=C1\CNC(=O)C(=O)C1c1nc2ccccc2s1 (centres undefined) | > 100 µM | > 100 µM | > 100 µM | > 100 | > 100 µM | > 100 | > 100 µM | – | – | – | – | – | – | – | – | – | – | – |
| Nc1c(C(=O)Nc2ccccc2O)[n+]([O-])c2ccccc2[n+]1[O-] | – | > 100 µM | > 100 µM | > 100 | > 100 µM | 27.7 | > 100 µM | – | – | – | – | – | – | – | – | – | – | – |
| COc1ccc2c3c(c(C(=O)O)oc13)C(CCC(=O)O)CC2 (centres undefined) | > 100 µM | > 100 µM | > 100 µM | > 100 | > 100 µM | – | – | – | – | – | – | – | – | – | – | – | – | – |
| Nc1c(-c2nc3ccccc3s2)[n+]([O-])c2ccccc2[n+]1[O-] | > 100 µM | > 100 µM | > 100 µM | 77.6 | 61.5 µM | 84.2 | > 100 µM | – | – | – | – | – | – | – | – | – | – | – |
| NC(=O)C(=O)Cc1nc2ccccc2s1 | – | > 100 µM | > 100 µM | > 100 | > 100 µM | > 100 | > 100 µM | – | – | – | – | – | – | – | – | – | – | – |
| CN(C)CCNC(=O)c1cccc2cc3ccc4ccccc4c3nc12 | 0.23 µM | 0.56 µM | 0.316 µM | 0.665 | 0.593 µM | 0.235 | 0.706 µM | – | – | – | – | – | – | – | – | – | – | – |
| c1ccc2c(c1)[O][Sn][O]2 | > 150 µg/mL | > 150 µg/mL | > 150 µg/mL | – | > 150 µg/mL | – | > 150 µg/mL | 35.5 µg/mL | 11 µg/mL | > 150 µg/mL | 45.3 µg/mL | inactive | 81.8 µg/mL | – | – | – | – | – |
| Nc1ncnc2sc(Nc3ccccc3)nc12 | > 100 µM | > 100 µM | > 100 µM | > 100 | > 100 µM | > 100 | > 100 µM | – | – | – | – | – | – | – | – | – | – | – |
| CC1(C)OC2OC(COC(=O)C(c3ccccc3)c3ccccc3)C3OC(C)(C)OC3C2O1 (centres undefined) | > 100 µM | > 100 µM | > 100 µM | > 100 | > 100 µM | > 100 | > 100 µM | – | – | > 100 µM | – | – | – | > 100 | – | – | – | – |
| C1=C(c2ccccc2)C(OC2Oc3ccccc3C=C2c2ccccc2)Oc2ccccc21 (centres undefined) | > 100 µM | > 100 µM | > 100 µM | > 100 | > 100 µM | > 100 | > 100 µM | – | – | – | – | – | – | – | – | – | – | – |
| C1CCN2CC3CONC3C2C1 (centres undefined) | > 100 µM | > 100 µM | > 100 µM | > 100 | > 100 µM | > 100 | > 100 µM | – | – | – | – | – | – | – | – | – | – | – |
| O=c1[nH]c(=O)n(C2CC(O)C(O)C(CO)O2)cc1F (centres undefined) | > 100 µM | > 100 µM | > 100 µM | > 100 | > 100 µM | > 100 | > 100 µM | – | – | – | – | – | – | – | – | – | – | – |
| O=C(O)C1=C(C(=O)O)Oc2ccccc2O1 | > 100 µM | > 100 µM | > 100 µM | > 100 | > 100 µM | > 100 | > 100 µM | – | – | – | – | – | – | – | – | – | – | – |
| Cc1c(C)c2ccc(OC(C)C(=O)O)cc2oc1=O (centres undefined) | > 100 µM | > 100 µM | > 100 µM | > 100 | > 100 µM | > 100 | – | – | – | – | – | – | – | – | – | – | – | – |
| COc1ccc(C(=O)/C=C/c2ccc(OCc3ccccc3)c(OC)c2)cc1OC | > 100 µM | 29.6 µM | > 100 µM | – | > 100 µM | – | > 100 µM | 4.01 µM | 3.05 µM | 3.55 µM | 3.1 µM | – | 17.3 µM | – | 2.76 | 8.1 µM | 2800 | 71.4 µM |
| O=C(CN(/C=C/C(=O)C(F)(F)F)c1ccccc1)c1ccc(F)cc1 | 26.9 µM | > 100 µM | > 100 µM | – | > 100 µM | – | 88.7 µM | 13 µM | 35.4 µM | 25.6 µM | 47.4 µM | – | 54.8 µM | – | 50 | > 100 µM | 2570 | 8.33 µM |
| Cn1c(CC(O)c2nc3ccccc3n2C)nc2ccccc21 (centres undefined) | > 61.5 µM | > 100 µM | > 47.8 µM | – | > 60.9 µM | – | > 74.3 µM | – | – | – | – | – | – | – | – | > 21.7 µM | – | > 24.2 µM |
| CN(c1ccc(NC(=O)NCCN2CCOCC2)cc1)c1ccnc(Nc2ccc(CS(C)(=O)=O)cc2)n1 | > 25 µM | > 25 µM | > 25 µM | – | > 25 µM | – | > 25 µM | > 25 µM | > 25 µM | > 25 µM | > 25 µM | – | > 25 µM | – | > 25 | > 25 µM | > 25000 | > 25 µM |
| N=C(N)c1ccc(OCCCCCOc2ccc(C(=N)N)cc2)cc1 | 9.38 µM and 23.6 µM and 29.6 µM | > 50 µM and 37.1 µM and > 100 µM | 12.9 µM and 22.5 µM and 86.6 µM | – | 12.3 µM and 21.9 µM and 49 µM | – | > 50 µM and 78.3 µM and > 100 µM | 2.02 µM | 0.83 µM | 34 µM | 2.05 µM | – | 5.46 µM | – | 5.64 | 11.9 µM and 27.9 µM and 28.7 µM | 7640 | 32.2 µM and 33 µM and 38.5 µM |
